Where two headings read alike, the source gives them in different places.
System: diarrhea-predominant IBS subjects
Type: in vivo, human
Conditions: for Number of subjects who died / Primary reason for withdrawal: Adverse event and lack of efficacy / Primary reason for withdrawal: Baseline complaint/adverse event: 2 mg TID
Procedure: The study was performed in approximately 150 study centers. Approximately 1600 eligible subjects were to be given cilansetron 2 mg TID. At Visit 1, pre-treatment assessments were conducted. […] Subjects were to return to the study site one month later for Visit 3 (Day 31) for their first interim assessment. […] All subjects who discontinued from the study were to have the same post-study assessments required at Visit 7 performed at their early termination visit. […]
Stool specimens were analyzed at every visit for occult blood. An independent GERB had been established to provide advice on GI AEs during the course of the study.
Adverse events were assessed at Baseline, at each clinic visit, and at the end of the study (Month 12 or the early termination visit). All AEs, which occurred during the study were followed up in accordance with good medical practice until resolved or judged no longer clinically significant, or if a condition was chronic, until fully characterized. Adverse events could occur in the specified follow-up period and, regardless of the interval since the last administration of the study medication, were treated in the same manner as an AE which occurred during the treatment with study medication. Each AE was evaluated for duration, severity, seriousness, and causal relationship to the investigational drug. The action taken and the outcome were also recorded.
Specifically, subjects who were lost to follow-up and had no post-Baseline contact with the site were excluded from the Safety population. The subjects who discontinued from the study due to lost to follow-up were identified based on the information collected on the study termination CRF page.
After the pretreatment assessment at Visit 1 (Days […] to −3), subjects were to return to the study site for a Baseline assessment and start the treatment at Visit 2 (Day 1).
For the by time-interval analyses of disposition, prevalence of AEs, and of markedly abnormal and predefined changes in laboratory values, vital signs, and ECGs, the following interval windows were used:
Adverse events that were already present prior to the first dose of cilansetron study medication but increased in severity afterwards were considered as treatment-emergent.
The 5% cutoff point was based on the incidence within higher level terms.
Subjects were counted at most once for each primary system organ class and preferred term. Serious AEs that resolved prior to receiving study medication or occurred more than 30 days after the last dose of study medication were not included in the incidence tables. A listing of all SAEs is presented; SAEs with onset prior to receiving study medication or more than 30 days after discontinuation of study medication were flagged. The listing presents lower level term and preferred term of the SAE, severity, action taken, outcome, and relationship of the SAE, start and stop date of the SAE, study day of onset of the SAE, age, race, and sex.

[1] = Cilansetron 2 mg, N=1454, % of appropriate gender
[2] = Study 3008, 2 mg TID (N = 1454)
[3] = Study 3008, of subjects who received study medication
[4] = TEAE incidence, 2 mg, Safety Population, HLT
[5] = TEAE incidence, 2 mg, Safety Population, PT

Cc1nccn1C[C@H]1CCc2c(c3cccc4c3n2CCC4)C1=O [cilansetron, (R)-(−)-4,5,6,8,9,10-hexahydro-10-[(2-methyl-1H-imidazol-1-yl)methyl]-11H-pyrido-[3,2,1-jk]-carbazol-11-one]
604 (42) n (%): Number of subjects with at least one related TEAE [2]
34 (2) n (%): Number of subjects with at least one TEAE leading to dose reduction [2]
42%: overall incidence of TEAEs possibly, probably, or unlikely related to study medication (Study 3008)
18 (1%) n (%): Bladder and Urethral Symptoms [4] | Supraventricular Arrhythmias [4]
(<1) %: Number of subjects who died [3]
13 (<1%) n (%): TEAE incidence: Weight Increased (Cilansetron 2 mg, N=1454) | Rashes, Eruptions and Exanthems NEC [4]
20 (1%) n (%): TEAE incidence: Urinalysis NEC (Cilansetron 2 mg, N=1454) | Disturbances in Initiating and Maintaining Sleep [4] | Febrile Disorders [4] | Pain and Discomfort NEC [4]
12%: withdrawal for lack of efficacy (combined categories) (Study 3008)
931 (64%) n (%): Total Number of Subjects with at Least One TEAE (Cilansetron 2 mg, N=1454)
192 (13) n (%): Number of subjects who permanently discontinued study medication due to a TEAE [2]
789 (54) n (%): Number of subjects with at least one AE of special interest [2]
222 (15%) n (%): TEAE incidence: constipation (Cilansetron 2 mg, N=1454)
38 (3%) n (%): TEAE incidence: flatulence (Cilansetron 2 mg, N=1454) | Asthenic Conditions [4]
3 (<1%) n (%): TEAE incidence: Viraemia NOS Present (Cilansetron 2 mg, N=1454) | TEAE incidence: Weight Decreased (Cilansetron 2 mg, N=1454) | TEAE incidence: White Blood Cells Urine (Cilansetron 2 mg, N=1454) | General Nutritional Disorders NEC [4] | Hyperlipidaemias NEC [4] | Intervertebral Disc Disorders NEC [4] | Menstruation and Uterine Bleeding NEC* [4] | Skin Injuries and Mechanical Dermatoses [4] | Tendon Disorders [4] | Ventricular Arrhythmias and Cardiac Arrest [4] | Back Injury NOS [5] | Benign Prostatic Hyperplasia* [5] | Bundle Branch Block Right [5]
91 (6%) n (%): TEAE incidence: flatulence, bloating and distension (Cilansetron 2 mg, N=1454)
Sixty-four: subjects with at least one TEAE (Study 3008)
12 (<1%) n (%): Muscle Pains [4] | Anxiety [5]
5 (<1%) n (%): TEAE incidence: Vaginal Candidiasis* [1] | Cardiac Signs and Symptoms NEC [4] | Nasal Disorders NEC [4] | Non-Site Specific Procedural Complications [4]
(5) %: Primary reason for withdrawal: Baseline complaint/adverse event [3]
10 (<1%) n (%): Bronchospasm and Obstruction [4] | Nasal Congestion and Inflammations [4] | Non-Site Specific Injuries NEC [4]
75 n: Primary reason for withdrawal: Baseline complaint/adverse event (Study 3008)
1 (<1%) n (%): TEAE incidence: Transient Cerebrovascular Events (Cilansetron 2 mg, N=1454) | TEAE incidence: Transient Global Amnesia (Cilansetron 2 mg, N=1454) | TEAE incidence: Transient Ischaemic Attack (Cilansetron 2 mg, N=1454) | TEAE incidence: Urethritis Non-Specific (Cilansetron 2 mg, N=1454) | TEAE incidence: Vasovagal Attack (Cilansetron 2 mg, N=1454) | TEAE incidence: Vitamin Analyses (Cilansetron 2 mg, N=1454) | TEAE incidence: Vitamin B12 Decreased (Cilansetron 2 mg, N=1454) | TEAE incidence: White Blood Cell Count Increased (Cilansetron 2 mg, N=1454) | TEAE incidence: Oophoritis* [1] | TEAE incidence: Pelvic Inflammatory Disease NOS* [1] | TEAE incidence: Vulvovaginitis Trichomonal* [1] | Anxiety Disorders NEC (Incl Obsessive Compulsive Disorder) [4] | Bladder Disorders NEC [4] | Breast Disorders NEC* [4] | Bursal Disorders [4] | Cartilage Disorders [4] | Cervix Disorders NEC* [4] | Chest and Lung Injuries NEC [4] | Connective Tissue Disorders (Excl Le) [4] | Dissociative States [4] | Erythemas [4] | Extremity Deformities [4] | Eye Injuries NEC [4] | Fear Symptoms [4] | Food Malabsorption and Intolerance Syndromes (Excl Sugar Intolerance) [4] | Heart Failure Signs and Symptoms [4] | Increased Physical Activity Levels [4] | Menopausal Effects on the Genitourinary Tract* [4] | Mental Disorders NEC [4] | Mood Alterations with Depressive Symptoms [4] | Oedema NEC [4] | Photosensitivity Conditions [4] | Purine Metabolism Disorders NEC [4] | Renal Neoplasms [4] | Reproductive Tract Disorders NEC (Excl Neoplasms) [4] | Respiratory Tract Disorders NEC [4] | Rosaceas [4] | Scalar Conditions [4] | Sebaceous Gland Disorders [4] | Skin Neoplasms Benign [4] | Skin Preneoplastic Conditions NEC [4] | Skin and Subcutaneous Tissue Ulcerations [4] | Sodium Imbalance [4] | Structural and Obstructive Urethral Disorders (Excl Congenital) [4] | Thermal Burns [4] | Total Fluid Volume Increased [4] | Connective Tissue Disorders (TEAE incidence, 2 mg, Safety Population, HLT (skin SOC)) | Abrasion NOS [5] | Acne Aggravated [5] | Acne NOS [5] | Affect Lability [5] | Alopecia [5] | Alopecia Areata [5] | Anal Injury [5] | Ankle Fracture [5] | Anxiety Aggravated [5] | Anxiety Disorder [5] | Arthralgia Aggravated [5] | Arthritis NOS [5] | Atrial Fibrillation Aggravated [5] | Atrial Flutter [5] | Atrial Hypertrophy [5] | Atrioventricular Block NOS [5] | Axillary Pain [5] | Bloody Discharge [5] | Breast Engorgement* [5] | Breast Tenderness* [5] | Bursitis [5]
8 (<1%) n (%): Apocrine and Eccrine Gland Disorders [4] | Elevated Triglycerides [4] | Muscle Related Signs and Symptoms NEC [4] | Rate and Rhythm Disorders NEC [4] | Urinary Abnormalities [4] | Urinary Tract Signs and Symptoms NEC [4]
40 (3%) n (%): TEAE incidence: back pain (Cilansetron 2 mg, N=1454)
119 n: Primary reason for withdrawal: Adverse event and lack of efficacy (Study 3008)
13%: withdrawal for AEs (combined categories) (Study 3008)
36 (2%) n (%): Upper Respiratory Tract Signs and Symptoms [4]
9 (<1%) n (%): Elevated Cholesterol [4]
156 (11%) n (%): TEAE incidence: abdominal pain NOS (Cilansetron 2 mg, N=1454)
9%: severe TEAEs (Study 3008)
Six: subjects with a treatment emergent SAE (Study 3008)
92 (6%) n (%): TEAE incidence: nausea and vomiting symptoms (Cilansetron 2 mg, N=1454)
16 (1%) n (%): Dermatitis and Eczema [4]
Thirteen: TEAEs that led to permanent discontinuation of study medication (Study 3008)
26 (2%) n (%): Anxiety Symptoms [4]
1 (<1) n (%): Number of deaths [2]
2 (<1%) n (%): TEAE incidence: Tremor (Cilansetron 2 mg, N=1454) | TEAE incidence: Tremor (Excl Congenital) (Cilansetron 2 mg, N=1454) | TEAE incidence: Urine Bilirubin Increased (Cilansetron 2 mg, N=1454) | TEAE incidence: Urine Ketone Body Present (Cilansetron 2 mg, N=1454) | TEAE incidence: White Blood Cells Urine Positive (Cilansetron 2 mg, N=1454) | TEAE incidence: Vaginitis* [1] | Acnes [4] | Affect Alterations NEC [4] | Benign and Malignant Breast Neoplasms* [4] | Coronary Artery Disorders NEC [4] | Erection and Ejaculation Conditions and Disorders* [4] | Fluctuating Mood Symptoms [4] | Menopausal Effects NEC* [4] | Menstruation with Increased Bleeding* [4] | Myocardial Disorders NEC [4] | Ovarian and Fallopian Tube Cysts and Neoplasms* [4] | Parasomnias [4] | Pelvic Prolapse* [4] | Renal Lithiasis [4] | Reproductive Tract Signs and Symptoms NEC [4] | Rheumatoid Arthropathies [4] | Sexual Desire Disorders [4] | Sleep Disorders NEC [4] | Spondyloarthropathies [4] | Thoracic Cage Fractures and Dislocations [4] | Urinary Tract Lithiasis (Excl Renal) [4] | Water Soluble Vitamin Deficiencies [4] | Acute Myocardial Infarction [5] | Amenorrhoea NOS* [5] | Angina Pectoris [5] | Animal Bite [5] | Appetite Decreased NOS [5] | Appetite Increased NOS [5] | Arthropod Sting [5] | Asthenia [5] | Asthma Aggravated [5] | Atrial Fibrillation [5] | Back Pain Aggravated [5] | Bradycardia NOS [5] | Breast Cyst* [5] | Breast Pain* [5] | Calculus Renal NOS [5] | Calculus Ureteric [5] | Catarrh [5]
4 (<1%) n (%): TEAE incidence: White Blood Cell Count Decreased (Cilansetron 2 mg, N=1454) | TEAE incidence: Female Reproductive Tract Infections* [1] | Breast Signs and Symptoms* [4] | Cardiac Conduction Disorders [4] | Dermal and Epidermal Conditions NEC [4] | Diabetes Mellitus (Incl Subtypes) [4] | Hyperglycaemic Conditions NEC [4] | Limb Injuries NEC (Incl Traumatic Amputation) [4] | Lower Limb Fractures and Dislocations [4] | Menstruation with Decreased Bleeding* [4] | Metabolic Bone Disorders [4] | Osteoarthropathies [4] | Panic Disorders [4] | Potassium Imbalance [4] | Prostatic signs, Symptoms and Disorders NEC* [4] | Urticarias [4]
1 n: Number of subjects who died (Study 3008)
28 (2%) n (%): Coughing and Associated Symptoms [4] | Depressive Disorders [4]
15 (1%) n (%): Appetite Disorders [4]
138 (9) n (%): Number of subjects with at least one severe TEAE [2]
100 (7%) n (%): TEAE incidence: headache NOS (Cilansetron 2 mg, N=1454)
11 (<1%) n (%): TEAE incidence: Triglyceride Analyses (Cilansetron 2 mg, N=1454) | Anorexia [5]
6 (<1%) n (%): Alopecias [4] | Arthropathies NEC [4] | Papulosquamous Conditions [4] | Paranasal Sinus Disorders (Excl Infections and Neoplasms) [4] | Soft Tissue Disorders NEC [4] | Asthma NOS [5]
14 (<1%) n (%): General Signs and Symptoms NEC [4] | Muscle, Tendon and Ligament Injuries [4] | Pruritus NEC [4]
85 (6) n (%): Number of subjects with at least one SAE [2]
17 (1%) n (%): Site Specific Injuries NEC [4]
25 (2%) n (%): TEAE incidence: Vomiting NOS (Cilansetron 2 mg, N=1454) | TEAE incidence: White Blood Cell Analyses (Cilansetron 2 mg, N=1454) | TEAE incidence: sinusitis NOS (Cilansetron 2 mg, N=1454)
44 (3%) n (%): TEAE incidence: nasopharyngitis (Cilansetron 2 mg, N=1454)
2%: TEAEs that led to dose reduction (Study 3008)
29 (2%) n (%): Arthralgia [5]
31 (2%) n (%): Joint Related Signs and Symptoms [4]
54%: special interest TEAEs (Study 3008)
78 (5%) n (%): TEAE incidence: nausea (Cilansetron 2 mg, N=1454)
(8) %: Primary reason for withdrawal: Adverse event and lack of efficacy [3]
931 (64) n (%): Number of subjects with at least one TEAE [2]
7 (<1%) n (%): TEAE incidence: Vascular Tests NEC (Incl Blood Pressure) (Cilansetron 2 mg, N=1454) | Breathing Abnormalities [4] | Ischaemic Coronary Artery Disorders [4] | Upper Limb Fractures and Dislocations [4]

Reference: patent US20070093520A1, “Method of treatment of diarrhea-predominant irritable bowel syndrome in a subject” (priority 2005, published 2007)
